Columns and labels:
[1] = system: monocytes isolated from human peripheral blood; assay: Internalization capacity (endocytosis, pinocytosis, macropinocytosis) of differentiated monocytes; type: cell-based; settings: control = 100%
Procedure: The “control” and “LPC” cells used in this analysis are those obtained after 6 days of differentiation according to the protocol described in example 1. These cells are incubated at 37° C.: • for 30 minutes with 1 mg/ml of FITC-T70-Dextran (Sigma) in order to estimate the capacity of these cells for internalization by endocytosis, • for 30 minutes with 1 mg/ml of Lucifer Yellow (ref. L0259, Sigma, St Quentin-Fallavier, France) in order to estimate the capacity of these cells for internalization by pinocytosis, • for 3 hours with carboxylate-modified yellow-green FluoSpheres (trade name, 0.45 μm, Molecular Probes, Leiden, The Netherlands) in order to estimate the capacity of these cells for internalization by macropinocytosis.
The internalization is stopped on ice with a cold PBS buffer containing 0.1% of BSA (Bovine Serum Albumin) and 0.05% of NaN3. The “control” and “LPC” cells are washed 3 times at 4° C. in this same buffer and the fluorescence is quantified by FACScalibur (trade name, Becton Dickinson).

PPARδ = assay: PPAR binding activity by gel shift on nuclear proteins of treated monocytes; type: cell-based, human
Procedure: Next, the inventors investigated the transcription factors involved in the maturation process induced by LPC. In order to determine whether PPARs are involved in the LPC-induced maturation, the ability of the two transcription factors PPARγ and PPARδ to bind was analyzed using the gel shift technique. 3 isotypes of PPAR nuclear receptors (peroxisome proliferator-activated receptor) exist: α, γ and δ. PPARγs are the targets for molecules of the thiazolidinedione class, such as ciglitizone, used in the treatment of type II diabetes. PPARδs have a broader expression and can be repressors of PPARγs. The monocytes undergoing differentiation were incubated for two hours with a solution of LPC (40 μM) (“LPC” cells). “Control” cells are also obtained in the absence of LPC in the culture medium. After having harvested the cells, the nuclear proteins were extracted with the Nuclear extract Kit (Sigma). The nuclear proteins were then brought into contact with a ratioactively labeled probe containing a response element recognized by PPARs. […] The PPAR binding activity was determined by measuring the intensity of these bands. These activities are expressed as a percentage with respect to the “control” cells. […]
The activity of the PPARγ and PPARδ transcription factors was measured in these cells by the gel shift technique, as described above.
INTRALIPID® regulates PPARs in vitro. […] The cells were harvested after 1 h, 2 h or 8 h of incubation with INTRALIPID®, the nuclear proteins were extracted and the activity of PPARγ and PPARδ was determined as described in example 6.
Secondly, a solution of INTRALIPID® (50 μg/ml of phospholipids) was added to the culture medium on the 5th day of monocyte differentiation, 15 minutes before the addition of a solution of LPC (40 μM) (“LPC+Intralipid” cells). […] The cells were harvested after 2 h of incubation, the nuclear proteins were extracted and the activity of PPARγ and PPARδ was determined as described in example 6.

[2] = system: monocytes isolated from human peripheral blood; assay: Phenotype (CD83, HLA-DR, CD86 expression) by flow cytometry of monocytes differentiated in absence or presence of LPC; type: cell-based; settings: 6th day of differentiation; 40 μM LPC added on day 5 for 24 hours
Procedure: Isolation, placing in culture and initiation of the differentiation of monocytes—The monocytes are isolated from human peripheral blood by means of first density gradient centrifugation (620 g; 20 minutes) in Ficoll-Hypaque, followed by second centrifugation (770 g; 20 minutes) in a 50% Percoll solution. The monocytes are then purified by immunomagnetic depletion (Dynal, Oslo, Norway), using a cocktail of anti-CD19 (hydridoma 4G7) (Becton Dickinson, Francklin Lakes, N.J., USA), anti-CD3 (OKT3, American Type Culture Collection, Rockeville, Md.) and anti-CD56 (NKH1, Beckman Coulter, Fullerton, Calif., USA) monoclonal antibodies. The monocytes thus obtained are then purified to at least 90%, as shown by the absence of CD1a markers and the presence of the CD14 marker. The differentiation of the monocytes into dendritic cells is initiated with 40 ng/ml of recombined human GM-CSF (Granulocyte-Macrophage Colony Stimulating Factor) and 250 U/ml of recombined human interleukin IL-4.
The monocytes are placed in culture in RPMI 1640 medium (Life Technologies, Rockeville, Md., USA) enriched with 2 mM of glutamine (Life Technologies), 10 mM of Hepes (Life Technologies), […] of gentamycin (Life Technologies) and 10% of lipoprotein-depleted fetal calf serum (LPDS, Sigma, St Quentin-Fallavier, France).
Treatment of the monocytes with LPC—5 days after the beginning of the differentiation of the monocytes, 40 μM of LPC (L-α-lysophosphatidylcholine; Sigma, St Quentin Fallavier, France) are added to the culture medium for 24 hours. Control cells are also obtained in the absence of LPC in the culture medium.
The cells used in this analysis are those obtained on the 6th day of differentiation according to the protocol described in example 1.
The phenotype of the “control” and “LPC” cells is analyzed by flow cytometry on a FACSCalibur (Becton Dickinson, Francklin Lakes, N.J., USA) using FITC (fluorosceine isothiocyanate)-conjugated anti-CD14, anti-HLA-DR and anti-CD80 and PE (phycoerythrin)-conjugated anti-CD1a, anti-CD83, anti-CD86 and anti-CD40 (Beckman Coulter). […]

Substance: L-α-lysophosphatidylcholine [LPC]
- Capacity for internalization by endocytosis ([1]; FITC-T70-Dextran 30 minutes): 53%
- Capacity for internalization by macropinocytosis ([1]; FluoSpheres 3 hours): 66%
- Capacity for internalization by pinocytosis ([1]; Lucifer Yellow 30 minutes): 49%
- PPARδ binding activity (PPARδ; Table 6, LPC 40 μM, two hours, percentage with respect to control cells): 263%
- PPARδ activity (PPARδ; Table 16, Intralipid 50 μg/ml phospholipids 15 minutes before LPC 40 μM, 2 h, control = 100%): 160%
- Expression of CD83 [2]: 11.74
- Expression of CD86 [2]: 759.69
- Expression of HLA-DR [2]: 146.31
